The values below are quoted from earlier work in patent US5112837A, “Quinoline derivatives having anti-tumor activity” (Imperial Chemical Industries PLC, priority 1987, dated 1992).

Data set [1] deals with human breast, ovarian and liver cancer. To be noted: clinical trials.
The conditions of data set [2]: literature references.

As for `C#CCN(Cc1ccc2nc(N)[nH]c(=O)c2c1)c1ccc(C(=O)N[C@@H](CCC(=O)O)C(=O)O)cc1` [CB3717], the “activity against human cancer” value in data set [1] is “promising activity against human breast, ovarian and liver cancer”. For the same compound, in data set [2], the “symptoms of toxicity in humans” value is “symptoms of toxicity in humans, particularly in relation to the liver and kidney”.
